Values quoted from earlier work as cited in paper PMC9127186, “Molecular Basis Underlying Hepatobiliary and Renal Excretion of Phenolic Acids of Salvia miltiorrhiza Roots (Danshen)” (Frontiers in Pharmacology, 2022).

Experiments:
human OAT1 = target: T1, human OAT1 (Homo sapiens, UniProt Q4U2R8); set-up: method as in Kang et al. (2021); details: ref Kang et al. (2021); cited from earlier work
T1 sequence (Q4U2R8 1-563): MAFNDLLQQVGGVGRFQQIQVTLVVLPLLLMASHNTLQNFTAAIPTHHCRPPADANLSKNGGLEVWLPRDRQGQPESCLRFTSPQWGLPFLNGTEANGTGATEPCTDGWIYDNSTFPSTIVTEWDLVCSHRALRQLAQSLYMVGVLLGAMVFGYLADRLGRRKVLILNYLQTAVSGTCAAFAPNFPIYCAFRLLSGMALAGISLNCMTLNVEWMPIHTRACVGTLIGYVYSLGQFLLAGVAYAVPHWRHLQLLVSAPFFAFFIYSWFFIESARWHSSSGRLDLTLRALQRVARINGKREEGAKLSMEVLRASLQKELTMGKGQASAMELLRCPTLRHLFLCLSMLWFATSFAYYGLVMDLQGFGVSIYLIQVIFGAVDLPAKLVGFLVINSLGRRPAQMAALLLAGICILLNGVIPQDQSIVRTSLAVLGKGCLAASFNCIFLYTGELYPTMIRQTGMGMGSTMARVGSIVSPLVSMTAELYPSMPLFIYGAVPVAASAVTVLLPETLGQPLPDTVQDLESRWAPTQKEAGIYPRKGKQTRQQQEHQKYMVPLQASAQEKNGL

human OATP1B1 = target: T2, human OATP1B1 (Homo sapiens, UniProt Q9Y6L6); set-up: method as in Cao et al. (2019); details: ref Cao et al. (2019); cited from earlier work
T2 sequence (Q9Y6L6 1-691): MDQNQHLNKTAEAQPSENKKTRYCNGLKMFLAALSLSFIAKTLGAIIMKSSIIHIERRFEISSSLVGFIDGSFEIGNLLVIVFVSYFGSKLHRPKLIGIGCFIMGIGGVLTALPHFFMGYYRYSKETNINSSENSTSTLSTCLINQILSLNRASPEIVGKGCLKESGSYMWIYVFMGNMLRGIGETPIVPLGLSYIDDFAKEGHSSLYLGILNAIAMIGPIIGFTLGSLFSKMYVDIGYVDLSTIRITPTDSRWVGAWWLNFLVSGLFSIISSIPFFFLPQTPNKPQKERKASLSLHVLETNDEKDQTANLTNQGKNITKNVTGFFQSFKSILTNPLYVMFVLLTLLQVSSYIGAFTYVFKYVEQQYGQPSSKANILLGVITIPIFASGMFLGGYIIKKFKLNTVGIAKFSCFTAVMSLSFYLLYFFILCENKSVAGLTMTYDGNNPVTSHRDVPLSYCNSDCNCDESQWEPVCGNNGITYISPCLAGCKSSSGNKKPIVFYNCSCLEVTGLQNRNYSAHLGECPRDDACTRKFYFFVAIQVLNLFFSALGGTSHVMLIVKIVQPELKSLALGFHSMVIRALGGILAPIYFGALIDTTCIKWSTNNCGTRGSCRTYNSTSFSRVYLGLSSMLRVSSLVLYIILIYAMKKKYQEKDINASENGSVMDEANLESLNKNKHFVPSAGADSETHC

Compound	substrate of human OAT1 (human OAT1)	substrate of human OATP1B1 (human OATP1B1)
O=C(/C=C/c1ccc(O)c(O)c1)O[C@H](Cc1ccc(O)c(O)c1)C(=O)O [Rosmarinic acid, rosmarinic acid]	substrate	–
salvianolic acid B	–	substrate
